Source: ChEMBL document CHEMBL1201862, “PubChem BioAssay data set” (2004)
Calls of active or inactive are those of the source.

How the values were obtained:
[1] = A High Throughput Confirmatory Assay used to Identify Novel Compounds that Inhibit Mycobacterium Tuberculosis in the absence of Glycerol.; format: functional
[2] = target: T1, Rac GTPase-activating protein 1 (Homo sapiens, UniProt Q9H0H5); assay: blockers of MgcRacGAP-driven Rac1 GTP hydrolysis – biochemical, ADP Hunter fluorescence, primary and confirmatory, confirmation (AID 624330); format: functional
T1 sequence (Q9H0H5 whole entry): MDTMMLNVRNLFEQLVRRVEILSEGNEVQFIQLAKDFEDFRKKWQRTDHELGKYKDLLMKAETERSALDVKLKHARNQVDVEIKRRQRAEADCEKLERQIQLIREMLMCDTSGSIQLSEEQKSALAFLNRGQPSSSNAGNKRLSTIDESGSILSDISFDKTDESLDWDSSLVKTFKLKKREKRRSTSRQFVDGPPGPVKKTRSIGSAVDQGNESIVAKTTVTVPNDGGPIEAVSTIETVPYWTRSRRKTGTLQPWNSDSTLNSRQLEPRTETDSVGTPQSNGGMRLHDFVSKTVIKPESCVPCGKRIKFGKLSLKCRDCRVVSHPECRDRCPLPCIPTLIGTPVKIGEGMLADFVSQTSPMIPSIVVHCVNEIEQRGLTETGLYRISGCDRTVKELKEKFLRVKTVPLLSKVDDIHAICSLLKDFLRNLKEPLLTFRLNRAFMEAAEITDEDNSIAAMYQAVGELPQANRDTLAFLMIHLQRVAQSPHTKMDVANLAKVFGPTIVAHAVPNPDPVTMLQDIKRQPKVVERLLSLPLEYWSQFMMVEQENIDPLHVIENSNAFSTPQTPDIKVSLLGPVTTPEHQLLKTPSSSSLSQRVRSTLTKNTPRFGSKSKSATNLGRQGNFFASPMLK

Mucolipin-3 = Mucolipin-3 (Homo sapiens, UniProt Q8TDD5); assay: Dose response cell-based high-throughput screening assay for agonists of the transient receptor potential channel ML3 (TRPML3). [Related pubchem assays: 1526, 1424, 1448 ]; format: functional
Ion channel NompC = Ion channel NompC (Danio rerio, UniProt Q7T1G6); assay: Fluorescence counterscreen assay for TRPML3 agonists: dose response cell-based high-throughput screening assay to identify agonists of the transient receptor potential channel N1 (TRPN1). [Related pubchem assays: 1526, 1424, 1448 ]; format: functional
[3] = target: T2, Heat shock factor protein 1 (Mus musculus, UniProt P38532); assay: enhancement of HSF1-driven luciferase signal – cell-based, NIH3T3, luminescence, dose retest, confirmation (AID 435004); format: functional;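 note: stress induced by proteasome inhibitor MG132 added 30 min after compound; luciferase reporter driven by HSF1 response element in NIH3T3 cells; actives raise luminescence as potentiators of the MG132 stress response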
T2 sequence (P38532 whole entry): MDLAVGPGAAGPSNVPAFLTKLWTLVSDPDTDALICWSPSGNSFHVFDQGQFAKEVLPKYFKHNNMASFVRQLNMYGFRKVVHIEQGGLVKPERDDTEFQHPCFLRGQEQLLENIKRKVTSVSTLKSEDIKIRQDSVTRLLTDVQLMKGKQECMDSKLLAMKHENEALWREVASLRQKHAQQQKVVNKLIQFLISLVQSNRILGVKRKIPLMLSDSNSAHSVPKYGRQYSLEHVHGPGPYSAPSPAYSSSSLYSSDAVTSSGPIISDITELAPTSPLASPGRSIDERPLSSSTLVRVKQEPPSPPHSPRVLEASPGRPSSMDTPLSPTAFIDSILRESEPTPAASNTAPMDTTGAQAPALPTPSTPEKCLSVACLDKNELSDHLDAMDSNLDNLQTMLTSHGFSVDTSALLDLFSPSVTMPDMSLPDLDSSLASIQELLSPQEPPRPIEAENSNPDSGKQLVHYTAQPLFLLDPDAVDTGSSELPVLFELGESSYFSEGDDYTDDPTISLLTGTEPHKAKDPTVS

[4] = M. tuberculosis H37Rv growth inhibitors, H37Rv strain (AID 1626); format: functional
[5] = Trypanosoma cruzi growth suppression in host cells – NIH3T3 host cells, beta-gal luminescence, confirmation (AID 2044); format: functional, cell-based;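 note: intracellular parasites grown in NIH/3T3 mouse fibroblasts as host cells; luminescent beta-galactosidase reporter signal from transgenic T. cruzi replicating inside host cells; inhibitors lower the luminescence signal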
[6] = NIH3T3 cell viability loss – ATP luminescence, mouse fibroblasts, counter-screen, dose response (AID 2010); format: functional, cell-based;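 note: cells exposed to compound for about 90 hours before reading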
[7] = target: T3, Neuropeptide Y receptor type 2 (Homo sapiens, UniProt P49146); assay: IC50 for human NPY-Y2 blockade – cell-based, counter-screen for NPY-Y1 antagonist project, dose response (AID 1278); format: functional
T3 sequence (P49146 whole entry): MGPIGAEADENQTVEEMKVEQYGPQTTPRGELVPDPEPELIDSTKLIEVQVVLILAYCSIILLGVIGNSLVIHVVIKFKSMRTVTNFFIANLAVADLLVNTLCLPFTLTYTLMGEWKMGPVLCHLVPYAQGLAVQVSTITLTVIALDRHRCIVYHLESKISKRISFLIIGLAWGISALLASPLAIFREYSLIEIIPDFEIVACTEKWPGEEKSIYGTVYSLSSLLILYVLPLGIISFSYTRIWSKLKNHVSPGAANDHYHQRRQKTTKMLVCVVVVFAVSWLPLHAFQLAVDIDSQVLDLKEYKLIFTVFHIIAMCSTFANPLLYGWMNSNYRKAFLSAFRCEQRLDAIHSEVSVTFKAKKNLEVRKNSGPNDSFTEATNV

[8] = target: T4, Neuropeptide Y receptor type 1 (Homo sapiens, UniProt P25929); assay: IC50 of human NPY-Y1 blockers – cell-based, dose response (AID 1277); format: functional
T4 sequence (P25929 whole entry): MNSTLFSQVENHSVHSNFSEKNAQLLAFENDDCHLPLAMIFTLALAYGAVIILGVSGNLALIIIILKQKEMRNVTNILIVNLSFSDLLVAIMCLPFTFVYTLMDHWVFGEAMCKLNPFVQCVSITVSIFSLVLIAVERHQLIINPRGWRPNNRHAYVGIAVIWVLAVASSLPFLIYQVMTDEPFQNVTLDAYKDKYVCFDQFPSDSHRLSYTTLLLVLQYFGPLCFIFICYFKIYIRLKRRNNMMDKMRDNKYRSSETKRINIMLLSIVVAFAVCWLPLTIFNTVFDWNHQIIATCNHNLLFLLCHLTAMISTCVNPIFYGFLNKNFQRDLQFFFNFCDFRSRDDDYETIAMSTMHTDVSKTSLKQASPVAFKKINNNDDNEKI

[9] = target: T5, Calpain-2 catalytic subunit (Sus scrofa, UniProt P43367); assay: m-calpain protease blockers, concentration series – biochemical, fluorogenic peptide substrate, dose response (AID 1420); format: functional
T5 sequence (P43367 whole entry): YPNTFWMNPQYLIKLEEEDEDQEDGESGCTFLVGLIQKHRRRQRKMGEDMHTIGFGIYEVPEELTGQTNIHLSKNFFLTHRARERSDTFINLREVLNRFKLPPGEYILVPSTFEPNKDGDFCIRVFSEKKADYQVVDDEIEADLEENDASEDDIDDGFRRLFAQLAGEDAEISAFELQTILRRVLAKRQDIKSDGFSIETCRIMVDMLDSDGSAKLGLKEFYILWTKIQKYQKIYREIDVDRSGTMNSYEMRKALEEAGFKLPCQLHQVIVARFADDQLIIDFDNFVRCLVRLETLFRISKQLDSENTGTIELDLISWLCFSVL

[10] = target: Luciferin 4-monooxygenase (Photinus pyralis, UniProt P08659); assay: inhibition of purified Photinus pyralis luciferase – biochemical, luminescence, dose response (AID 1891)
[11] = Luminescence Cell-Based Dose Confirmation HTS to Identify Inhibitors of Platelet Dense Granule Release. [Related pubchem assays: 1663 (Primary HTS), 1678 (Summary of Project)]; format: functional
[12] = target: Potassium voltage-gated channel subfamily KQT member 2 (Rattus norvegicus, UniProt O88943, W236L); assay: potentiation of rat KCNQ2 current – cell-based, automated electrophysiology, mechanism study for KCNQ2 potentiator project, dose response (AID 2603); format: functional
[13] = target: Epstein-Barr nuclear antigen 1 (Epstein-Barr virus (strain B95-8) (HHV-4) (Human herpesvirus 4), UniProt P03211); assay: inhibition of EBV nuclear antigen 1 DNA binding – biochemical, fluorescence polarization, 1536-well, dose response (AID 2381); set-up: species or system human gammaherpesvirus 4;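 note: fluorescence polarization of a Cy5 DNA probe bound by EBNA-1 protein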
[14] = target: Lytic switch protein BZLF1 (Epstein-Barr virus (strain B95-8) (HHV-4) (Human herpesvirus 4), UniProt P03206); assay: inhibition of BZLF1 ZTA DNA binding – biochemical, fluorescence polarization, Epstein-Barr virus, 1536-well, counter-screen for EBNA-1 inhibitor project, dose response (AID 2377); set-up: species or system human gammaherpesvirus 4;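 note: fluorescence polarization of Cy5-labelled ZRE DNA probe bound by purified Zta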
[15] = antiviral protection against BTV-induced cell death – arbovirus, BSR cells, confirmation (AID 1250); format: functional;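 note: protection from viral cytopathic effect measured as cell viability by ATP luminescence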
HEK293 [16] = assay: inhibition of NOD1-driven NF-kB reporter – cell-based, luminescence, uHTS, primary screen (AID 1578); format: functional; conditions: Homo sapiens
HEK293 [17] = assay: cells; format: functional, cell-based; conditions: Homo sapiens
HEK293 [18] = assay: cells; format: functional, cell-based; conditions: Homo sapiens; remark: listed apart in the source
[19] = Luminescence-based counterscreen assay for KLF5 inhibitors: dose response cell-based high throughput screening assay to identify cytotoxic compounds using the IEC-6 intestinal epithelial cell line. [Related pubchem assays: 1700 (Primary screen.), 1834 (Confirmation screen.), 1858 (Summary AID.), 1905 (Counterscreen.)]; format: functional
[20] = target: Nucleotide-binding oligomerization domain-containing protein 2 (Homo sapiens, UniProt Q9HC29); assay: inhibition of NOD2-driven NF-kB reporter – cell-based, luminescence, uHTS, HEK293 (AID 1566); format: functional
HEK293 [21] = assay: NOD2 signaling inhibitors in MDP-stimulated cells, cell-based, uHTS, luminescence (AID 2001); format: functional; conditions: Homo sapiens
HEK293 [22] = assay: cells; format: functional, cell-based; conditions: Homo sapiens; remark: listed apart in the source
Exodeoxyribonuclease V = Exodeoxyribonuclease V (Escherichia coli (strain K12), UniProt P04993+P07648+P08394); assay: RecBCD inhibition via phage-restricted bacterial growth – absorbance, V66 E. coli, mutant T4 phage, counter-screen for AddAB inhibitor project, dose response (AID 492957); format: functional, cell-based, Escherichia coli str. K-12 substr. MG1655
Nonstructural protein 1 = Nonstructural protein 1 (Influenza A virus, UniProt Q194T2); format: functional, Influenza A virus (A/California/07/2009(H1N1))
[23] = Counterscreen for AddAB inhibitors: absorbance-based bacterial cell-based high throughput dose response assay for inhibitors of bacterial viability. [Related pubchem assays (depositor defined):AID435030, AID449728, AID449731, AID488942, AID488955, AID488956]; format: functional
INS1 = assay: INS-1E survival protection against cytokine death – cell-based, luminescence, retest, dose response (AID 449756); format: functional; conditions: Rattus norvegicus;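 note: cell death triggered by IL-1 beta plus TNF-alpha plus IFN-gamma mixture; protective hits raise ATP signal compared with cytokine alone wells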
[24] = viability loss in HepG2 hepatoma cells – cell-based, ATP luminescence, cherry-pick, activator set 2, cytotoxicity control, dose response (AID 1053143); format: functional
[25] = NIH-3T3 fibroblast cytotoxicity, dose response, cytotoxicity control, cell-based, fluorescence, Alamar Blue, secondary assay (AID 2327); format: functional;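 note: NIH-3T3 mouse fibroblasts cultured with fluconazole at 8 µg/mL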
[26] = fluconazole-exposed Candida albicans growth modulators – fluorescence, retest, confirmation (AID 2467); format: functional, cell-based
[27] = HPDE-C7 pancreatic duct cell viability loss – fluorescence, HTS (AID 430); format: functional, cell-based; conditions: Homo sapiens
[28] = Luminescence-based dose response cell-based high throughput screening assay for cytotoxic compounds using the IEC-6 intestinal epithelial cell line. [Related pubchem assays: 1858 (Summary AID.), 1825 (Counterscreen.), 1907 (Confirmation screen.)]; format: functional
[29] = viability loss of HPDE-C7K cells – cell-based, fluorescence, HTS, primary screen (AID 431); format: functional; conditions: Homo sapiens
[30] = HEK-293T cell viability reduction – luminescence, B-cell screen hits, cytotoxicity control for BCR NF-kB inhibitor project, dose response (AID 489021); format: functional, cell-based;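 note: HEK-293T cells carrying an NF-kB luciferase reporter; cells exposed to compound for about 14 hours before viability readout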

Chain of Mucolipin-3 (Q8TDD5 whole entry): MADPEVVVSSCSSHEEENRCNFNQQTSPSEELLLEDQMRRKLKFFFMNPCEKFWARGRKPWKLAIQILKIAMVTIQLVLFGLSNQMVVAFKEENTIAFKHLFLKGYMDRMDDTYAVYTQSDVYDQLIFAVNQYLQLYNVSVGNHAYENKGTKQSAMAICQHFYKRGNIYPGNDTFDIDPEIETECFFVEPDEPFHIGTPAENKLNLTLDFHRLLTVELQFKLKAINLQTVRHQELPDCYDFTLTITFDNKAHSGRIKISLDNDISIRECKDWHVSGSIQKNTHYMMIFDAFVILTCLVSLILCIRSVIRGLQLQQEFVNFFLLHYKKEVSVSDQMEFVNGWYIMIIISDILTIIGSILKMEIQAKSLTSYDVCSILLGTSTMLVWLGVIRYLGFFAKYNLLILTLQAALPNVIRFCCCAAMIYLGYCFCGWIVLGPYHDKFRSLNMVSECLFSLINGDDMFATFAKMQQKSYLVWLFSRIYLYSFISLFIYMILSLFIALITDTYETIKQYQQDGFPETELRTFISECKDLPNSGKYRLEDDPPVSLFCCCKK
Chain of Nucleotide-binding oligomerization domain-containing protein 2 (Q9HC29 whole entry, the tested form may be a part): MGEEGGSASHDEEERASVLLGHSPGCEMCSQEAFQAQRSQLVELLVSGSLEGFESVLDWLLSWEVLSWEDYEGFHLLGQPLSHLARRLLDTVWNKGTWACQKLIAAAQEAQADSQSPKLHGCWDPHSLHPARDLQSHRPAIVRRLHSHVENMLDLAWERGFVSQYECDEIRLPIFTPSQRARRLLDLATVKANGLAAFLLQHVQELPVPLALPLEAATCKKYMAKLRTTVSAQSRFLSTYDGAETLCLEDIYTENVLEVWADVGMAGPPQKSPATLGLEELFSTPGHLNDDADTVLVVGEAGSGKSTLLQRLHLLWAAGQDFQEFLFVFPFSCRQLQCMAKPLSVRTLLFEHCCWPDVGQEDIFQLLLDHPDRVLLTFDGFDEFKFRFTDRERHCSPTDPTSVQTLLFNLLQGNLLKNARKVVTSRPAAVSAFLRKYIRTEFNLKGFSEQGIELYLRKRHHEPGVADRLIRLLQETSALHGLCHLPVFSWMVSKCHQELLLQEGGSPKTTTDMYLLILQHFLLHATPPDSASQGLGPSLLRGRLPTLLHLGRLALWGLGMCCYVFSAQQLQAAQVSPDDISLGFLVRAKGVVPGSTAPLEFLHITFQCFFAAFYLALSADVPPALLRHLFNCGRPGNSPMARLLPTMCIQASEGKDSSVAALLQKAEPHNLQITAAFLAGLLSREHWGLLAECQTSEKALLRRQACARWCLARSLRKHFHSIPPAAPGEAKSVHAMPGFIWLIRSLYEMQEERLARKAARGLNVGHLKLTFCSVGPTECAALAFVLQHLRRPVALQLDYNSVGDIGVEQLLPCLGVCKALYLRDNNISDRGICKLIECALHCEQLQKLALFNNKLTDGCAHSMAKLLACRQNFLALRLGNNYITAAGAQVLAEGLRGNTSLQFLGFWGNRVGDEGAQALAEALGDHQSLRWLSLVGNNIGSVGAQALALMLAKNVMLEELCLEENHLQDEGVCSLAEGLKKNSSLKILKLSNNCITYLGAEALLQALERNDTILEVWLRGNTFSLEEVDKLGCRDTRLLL
Chain of Lytic switch protein BZLF1 (P03206 whole entry): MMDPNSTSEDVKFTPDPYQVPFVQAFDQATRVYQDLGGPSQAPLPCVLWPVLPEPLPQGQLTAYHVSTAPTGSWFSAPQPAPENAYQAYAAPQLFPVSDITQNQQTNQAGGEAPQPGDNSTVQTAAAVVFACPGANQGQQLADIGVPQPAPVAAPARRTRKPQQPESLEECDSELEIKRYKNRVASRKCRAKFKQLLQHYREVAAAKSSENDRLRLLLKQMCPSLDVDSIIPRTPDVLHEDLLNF
Chain of Epstein-Barr nuclear antigen 1 (P03211 whole entry): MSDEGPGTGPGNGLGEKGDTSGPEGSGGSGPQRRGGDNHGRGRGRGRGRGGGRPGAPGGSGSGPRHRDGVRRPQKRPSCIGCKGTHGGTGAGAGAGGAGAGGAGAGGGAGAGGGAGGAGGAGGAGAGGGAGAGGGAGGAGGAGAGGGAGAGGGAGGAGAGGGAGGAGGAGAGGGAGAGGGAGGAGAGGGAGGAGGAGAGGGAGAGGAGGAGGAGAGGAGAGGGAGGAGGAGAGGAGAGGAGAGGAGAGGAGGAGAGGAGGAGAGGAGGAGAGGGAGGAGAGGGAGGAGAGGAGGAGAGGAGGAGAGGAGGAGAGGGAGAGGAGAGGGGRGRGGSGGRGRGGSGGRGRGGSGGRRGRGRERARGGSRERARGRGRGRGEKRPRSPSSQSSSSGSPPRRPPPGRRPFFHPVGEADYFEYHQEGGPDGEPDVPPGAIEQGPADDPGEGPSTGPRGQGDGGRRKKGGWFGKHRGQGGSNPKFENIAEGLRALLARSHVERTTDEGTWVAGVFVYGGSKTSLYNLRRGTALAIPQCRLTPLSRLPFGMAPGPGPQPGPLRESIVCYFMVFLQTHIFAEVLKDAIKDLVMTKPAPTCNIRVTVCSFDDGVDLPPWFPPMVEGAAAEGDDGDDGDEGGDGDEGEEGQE
Chain of Ion channel NompC (Q7T1G6 whole entry): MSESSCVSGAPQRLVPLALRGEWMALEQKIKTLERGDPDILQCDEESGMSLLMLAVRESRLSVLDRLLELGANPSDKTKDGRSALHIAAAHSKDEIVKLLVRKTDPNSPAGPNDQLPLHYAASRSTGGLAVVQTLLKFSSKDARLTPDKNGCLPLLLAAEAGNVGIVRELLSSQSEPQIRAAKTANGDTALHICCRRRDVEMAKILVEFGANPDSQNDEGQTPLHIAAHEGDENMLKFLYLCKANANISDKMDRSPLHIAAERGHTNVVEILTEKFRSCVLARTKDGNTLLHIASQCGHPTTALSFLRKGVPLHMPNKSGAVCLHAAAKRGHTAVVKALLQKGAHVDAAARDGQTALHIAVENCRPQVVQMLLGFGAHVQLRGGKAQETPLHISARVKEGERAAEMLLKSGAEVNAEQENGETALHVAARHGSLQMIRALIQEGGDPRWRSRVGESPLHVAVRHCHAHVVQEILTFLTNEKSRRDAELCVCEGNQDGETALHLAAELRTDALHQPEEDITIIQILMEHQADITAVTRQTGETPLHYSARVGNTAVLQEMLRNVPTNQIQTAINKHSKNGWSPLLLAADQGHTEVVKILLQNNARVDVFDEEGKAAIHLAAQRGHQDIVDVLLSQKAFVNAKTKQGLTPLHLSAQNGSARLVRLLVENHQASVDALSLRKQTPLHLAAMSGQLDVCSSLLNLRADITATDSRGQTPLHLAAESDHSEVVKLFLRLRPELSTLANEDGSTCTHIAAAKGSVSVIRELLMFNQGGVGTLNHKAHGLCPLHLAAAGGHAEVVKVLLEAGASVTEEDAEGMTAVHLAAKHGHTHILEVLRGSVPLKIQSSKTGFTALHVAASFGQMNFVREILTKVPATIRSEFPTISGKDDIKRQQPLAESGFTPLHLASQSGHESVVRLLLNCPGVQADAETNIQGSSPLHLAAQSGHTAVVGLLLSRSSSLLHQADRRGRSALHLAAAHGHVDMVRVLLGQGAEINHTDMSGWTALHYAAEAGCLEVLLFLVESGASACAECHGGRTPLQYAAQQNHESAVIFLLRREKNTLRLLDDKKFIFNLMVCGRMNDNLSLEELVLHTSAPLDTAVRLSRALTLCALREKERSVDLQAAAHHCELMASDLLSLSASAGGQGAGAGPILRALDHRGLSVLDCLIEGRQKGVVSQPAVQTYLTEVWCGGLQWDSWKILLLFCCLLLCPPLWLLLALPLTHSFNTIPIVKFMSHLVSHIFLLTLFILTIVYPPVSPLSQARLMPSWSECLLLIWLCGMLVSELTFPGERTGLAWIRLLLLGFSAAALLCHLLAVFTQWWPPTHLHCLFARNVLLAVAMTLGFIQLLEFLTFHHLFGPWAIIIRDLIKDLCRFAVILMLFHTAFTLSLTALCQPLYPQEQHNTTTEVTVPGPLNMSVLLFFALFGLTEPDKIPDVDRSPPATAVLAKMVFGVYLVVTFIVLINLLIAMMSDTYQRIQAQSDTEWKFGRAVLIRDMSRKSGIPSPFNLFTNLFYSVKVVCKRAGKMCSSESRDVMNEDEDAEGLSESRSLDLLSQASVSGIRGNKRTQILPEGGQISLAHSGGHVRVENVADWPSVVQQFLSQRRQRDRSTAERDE
Chain of Nonstructural protein 1 (Q194T2 whole entry): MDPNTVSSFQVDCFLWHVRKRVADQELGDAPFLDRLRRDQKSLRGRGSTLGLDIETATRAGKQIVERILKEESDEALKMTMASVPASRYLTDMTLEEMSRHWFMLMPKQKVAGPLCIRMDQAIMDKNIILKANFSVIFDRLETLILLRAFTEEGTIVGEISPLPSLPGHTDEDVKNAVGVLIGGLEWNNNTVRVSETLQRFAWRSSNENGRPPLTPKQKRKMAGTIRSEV
Chain of Luciferin 4-monooxygenase (P08659 whole entry): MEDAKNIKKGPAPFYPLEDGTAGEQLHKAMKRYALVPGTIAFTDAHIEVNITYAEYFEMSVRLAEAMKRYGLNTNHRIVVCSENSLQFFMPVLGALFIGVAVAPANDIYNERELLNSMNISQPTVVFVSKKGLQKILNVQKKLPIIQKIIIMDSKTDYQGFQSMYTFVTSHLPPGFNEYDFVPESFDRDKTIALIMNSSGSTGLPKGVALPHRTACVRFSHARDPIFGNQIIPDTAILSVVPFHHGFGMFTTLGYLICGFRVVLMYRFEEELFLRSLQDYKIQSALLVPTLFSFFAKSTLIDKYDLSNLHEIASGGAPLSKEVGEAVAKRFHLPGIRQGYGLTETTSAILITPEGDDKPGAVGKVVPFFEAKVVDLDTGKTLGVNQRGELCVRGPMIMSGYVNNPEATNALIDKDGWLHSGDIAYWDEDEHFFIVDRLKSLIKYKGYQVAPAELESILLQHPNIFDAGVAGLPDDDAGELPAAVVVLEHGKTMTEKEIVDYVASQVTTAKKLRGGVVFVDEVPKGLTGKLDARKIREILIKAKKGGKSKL

O=C(NC1CCN(C(=O)N2c3ccccc3Sc3ccccc32)CC1)c1ccccc1F
IC50 [1]: > 100 µM (active)
IC50 [2]: 115 µM (active)

O=C(Nc1c(S(=O)(=O)c2ccc(Cl)cc2)csc1Br)c1ccccc1Cl
EC50 (Mucolipin-3): > 3.32 µM (active)
EC50 (Ion channel NompC): > 29.9 µM (not active)
EC50 [3]: > 260 µM (inactive)

CCc1ccccc1NC(=O)c1ccc([N+](=O)[O-])s1
IC50 [4]: > 100 µM (active)
EC50 [5]: 0.471 µM (active)
EC50 [6]: > 30 µM (not active)

COc1ccc(N(C)S(=O)(=O)c2cccc(C(=O)NCC3CCCCC3)c2)cc1
IC50 [7]: > 35 µM (not active)
IC50 [8]: > 35 µM (not active)
EC50 [5]: > 30 µM (not active)
IC50 [9]: 14.1 µM (not active)
EC50 [6]: > 30 µM (not active)

Cc1cc(Cl)c(S(=O)(=O)N2CCN(c3ccccn3)CC2)cc1OCC(=O)NC1CCCCC1
EC50 [10]: 77.1 µM (active)
EC50 [11]: > 112 µM (not active)
EC50 [12]: 5.34 µM (active)

CCOc1ccc(NC(=O)CCC(=O)NNC(=O)COc2ccc(C)cc2Br)cc1
IC50 [13]: 5.52 µM (active)
IC50 [14]: > 111 µM (not active)

COc1cccc(-c2nc(SCC(=O)Nc3nc(-c4ccccc4)c(C)s3)nc(O)c2C#N)c1
IC50 [15]: 23.4 µM (active)

Oc1cccc(/C=N/Nc2ccc(Cl)nn2)c1O
EC50 (HEK293 [16]): > 20 µM (inactive)
IC50 (HEK293 [17]): 17.5 µM (active)
IC50 (HEK293 [18]): > 20 µM (inactive)
IC50 [19]: 7.91 µM (active)
EC50 [20]: > 20 µM (inactive)
IC50 (HEK293 [21]): > 20 µM (inactive)
IC50 (HEK293 [22]): > 20 µM (inactive)
IC50 (Exodeoxyribonuclease V): > 119 µM (inactive)
IC50 (Nonstructural protein 1): 2.23 µM (active)
IC50 [23]: > 119 µM (inactive)
AC50 (INS1): 1.76 µM (active)
AC50 [24]: 20.4 µM (active)

C[C@H]1CCC/C=C/C2C[C@H](O)CC2[C@H](O)/C=C/C(=O)O1 (stereo partly drawn)
EC50 [25]: 2.37 µM (inconclusive)
EC50 [26]: 0.843 µM (active)
EC50 [27]: 0.23 µM (active)
IC50 [28]: 0.446 µM (active)
EC50 [29]: 0.24 µM (active)
IC50 [30]: > 80 µM (inactive)
AC50 (INS1): 1.01 µM (active)
